In test [1] the test system is induction of luciferase expression by p21 from the NK4 promoter in LuNK4p21 cells. Kind of test: Luciferase assay in LuNK4p21 cell line (NK4 promoter-luciferase, IPTG-inducible p21). It is filed as cell-based, human. The note with it: for induction of luciferase expression by IPTG in the presence of NSAID: 20 hr treatment after 16 hrs with 50 μM IPTG. As for the experimental part: To develop a stably transfected cell line with p21-regulated luciferase expression, the NK4 promoter-luciferase construct, described in Example 8 and termed pLuNK4, was introduced into HT1080 p21-9 cells, which carry IPTG-inducible p21, by cotransfection with pBabePuro carrying puromycin N-acetyltransferase as a selectable marker. Transfection was carried out using LIPOFECTAMTNE 2000 (Life Technologies, Inc., Gaithersburg, Md.), using a 10:1 ratio of pLuNK4 and pBabePuro. Stable transfectants were selected using 1 μg/mL puromycin for 5 days.
This assay was performed as follows. Cells were plated at a density of 40,000 cells/well in 12 well plates in 1 mL of media containing penicillin/streptomycin, glutamine and 10% fetal calf serum (FCS). After attachment, cells were treated with 50 μM IPTG or left untreated for different periods of time. Luciferase activity was then measured as described in Example 8 above. An additional aliquot was removed from the cell lysate to measure protein concentration using the Bio-Rad protein assay kit (Bradford assay). Luciferase activity for each sample was normalized to protein content and expressed as luciferase activity/μg protein.
Luciferase assays were performed substantially as described in Example 9. Luciferase activity was measured after 16 hrs of incubation with or without 50 μM IPTG, followed by an additional 20 hr treatment in the presence or in the absence of 20 mM sodium salicylate, 1 mM sulindac, or 10 mM aspirin. […] NSAID concentrations were based on the pharmacologic concentrations of these agents in the serum of patients required for their anti-inflammatory properties (Yin et al., 1998, ibid.).

For test [2], the system named is NFκB transcriptional activity (pNFkB-Luc) in HT1080 p21-9 cells. Kind of test: Transient transfection assay with pNFkB-Luc in HT1080 p21-9 cells. The note with it: 50 μM IPTG three days; pNFkB-Luc mixed with negative control E1AΔN/C. It is filed as cell-based, human. As for the experimental part:
Plasmid clones for each promoter construct were tested for p21-regulation by a transient transfection assay. Transient transfection of HT1080 p21-9 cells was carried out by electroporation, essentially as described in the Bio-Rad protocols. For each electroporation, p21-9 cells were grown to confluence in 15 cm plates using DMEM supplemented with 10% FC2 serum and containing penicillin, streptomycin and glutamine.. The cells were then trypsinized, resuspended in Opti-MEM medium (GibcoBRL) and spun down at 1,000 rpm in an IEC HN-SII centrifuge for 10 minutes. Following centrifugation the media were aspirated and the cells were again resuspended in Opti-MEM at a concentration of 18-20 million cells per ml. […] In preliminary experiments, cell survival and attachment after electroporation was determined to be approximately 33%. […] Luciferase activity was measured using a Turner 20/20 luminometer at 52.1% sensitivity with a 5 second delay period and 10-15 second integration time.
To determine if IPTG-inducible p21 expression in HT 1080 p21-9 cells stimulates the transcriptional activity of NFκB, we have used transient transfection assays to investigate the effect of p21 induction on luciferase expression from the plasmid pNFkB-Luc, commercially available from Stratagene. […] The luciferase activity was measured and normalized to protein content in each sample.

For test [3], the system named is human fibrosarcoma cell line HS 15.T. Kind of test: Mitogenic activity assay, 3H-thymidine incorporation. It is filed as cell-based. The note with it: HS 15.T cells. As for the experimental part:
(§1) To verify the induction of secreted mitogenic and anti-apoptotic factors by p21, conditioned media from IPTG-treated p21-9 cells were tested to investigate whether they would have an effect on cell growth and apoptosis. In these experiments, conditioned media were prepared by plating 10^6 p21-9 cells per 15 cm plate in the presence of DMEM/10% FCS. The next day, IPTG was added to a final concentration of 50 μM, and this media was replaced three days later with DMEM supplemented with 0.5% FCS and 50 μM IPTG. Two days later (days 3-5 of IPTG treatment), this conditioned media was collected and stored at 4° C. up to 15 days before use. Control media were prepared by adding IPTG-free DMEM/0.5% FCS to untreated cells grown to the same density as IPTG-treated cells and collecting the media two days thereafter.
The slow-growing human fibrosarcoma cell line HS 15.T was used to detect mitogenic activity in these conditioned media. For mitogenic activity assays, both types of conditioned media, as well as fresh media and 1:1 mixtures of conditioned media and fresh media were used to test mitogenic activity. In these experiments, the conditioned media were supplemented with 1% or 2% FCS. […] Cells were then collected and their ^3H-thymidine incorporation determined as described by Mosca et al. (1992, Mol. Cell. Biol. 12: 4375-4383).
(In general: Incorporation of labelled thymidine or its analogues reports DNA synthesis.)

The test system of test [4] is mouse embryo fibroblast line C8. Nature of the test: Apoptosis assay in serum-starved C8 cells. It counts as cell-based. As for the experimental part: as §1
The effect of this conditioned media on apoptosis was also determined. These experiments used a mouse embryo fibroblast line C8, immortalized by E1A. […] Apoptosis was analyzed by plating 3×10^5 C8 cells per 6-cm plate, and replacing the media on the following day with fresh media supplemented with 0.4% serum or with conditioned media (no fresh serum added). DNA content analysis and DAPI staining were carried out after 24 hrs and 48 hrs, and relative cell numbers were measured by methylene blue staining (Perry et al., 1992, Mutat. Res. 276: 189-197) after 48 hrs in low-serum media.

Test [5] deals with RNA expression of the endogenous p21-inducible genes in LuNK4p21 cells. Kind of test: RT-PCR of endogenous p21-inducible genes in LuNK4p21 cells. It counts as cell-based, human. As for the experimental part: To determine whether NFκB-inhibiting NSAID inhibited not only the induction of transcription from the NK4 promoter but also RNA expression of the endogenous p21-inducible genes, LuNK4p21 cells were plated at 125,000 cells per well in 6-well plates and were either untreated or treated with 50 μM IPTG for 48 hrs (the period of time required for maximal stimulation of p21 -inducible genes; Chang et al., 2000, Proc. Natl. Acad. Sci. USA 97: 4291-4296), in the presence or in the absence of sulindac, at 250 μM, 500 μM or 1 mM concentrations. After this incubation, RNA was extracted from the cells using Qiagen RNeasy Mini Kit, and relative RNA levels of several p21-inducible genes were determined by reverse transcription-PCR (RT-PCR), essentially as described by Noonan et al. (1990, Proc. Natl. Acad. Sci. USA 87: 7160-7164), except that β-actin rather than β2-microglobulin was used for cDNA normalization. The PCR cycles were as follows: for the 1st cycle, 3 min for denaturation, 2 min for annealing and 2 min for extension, and the rest of cycles, 30 sec for denaturation; 30 sec for annealing; and 1 min for extension.

[6] abbreviates: sulindac 250 μM, 500 μM or 1 mM.

SMILES strings stand for the structures.

For `CC(C)S[C@@H]1O[C@H](CO)[C@H](O)[C@H](O)[C@H]1O` [IPTG, isopropyl-β-thiogalactoside], the “increase of luciferase expression by IPTG” value in test [1] (50 μM IPTG, absence of NSAID) is on record as 3-4 fold. The “increase in luciferase levels in IPTG-treated cells” value in test [1] (LuNK4p21 cell line, about 17 hrs) is reported as “approximately 3 fold”. In addition, in test [2], the “induction of pNFkB-Luc luciferase in the presence of IPTG” value is given as “up to 15 fold”. Further, the “effect of the addition of IPTG to fresh media on 3H-thymidine incorporation” value in test [3] is “no effect”. For the same compound, the “effect of IPTG by itself on apoptosis” value in test [4] is “no effect”.
For `CC(=O)Oc1ccccc1C(=O)O` [aspirin], the “induction of luciferase expression by IPTG in the presence of NSAID” value (“induction of luciferase expression” below) in test [1] (10 mM aspirin) is on record as “completely or almost completely abolished”.
`CC(C)Cc1ccc(C(C)C(=O)O)cc1` (stereo not shown) [ibuprofen]: the “induction of luciferase expression” value in test [1] (25 μM) is “no significant difference”.
Regarding `COc1ccc2c(c1)c(CC(=O)O)c(C)n2C(=O)c1ccc(Cl)cc1` [indomethacin], the “induction of luciferase expression” value in test [1] (25 μM) is “no significant difference”.
Consider `O=C([O-])c1ccccc1O.[Na+]` [salicylate, sodium salicylate], for which the “induction of luciferase expression” value in test [1] (20 mM sodium salicylate) was “completely or almost completely abolished”.
In the case of `CC1=C(CC(=O)O)c2cc(F)ccc2/C1=C\c1ccc([S+](C)[O-])cc1` (stereo not shown) [sulindac], the “induction of luciferase expression” value in test [1] (1 mM sulindac) is listed as “completely or almost completely abolished”. The “effects of IPTG on the APP gene (RT-PCR)” value in test [5] (250 and 500 μM sulindac) is listed as “diminished”. In addition, the “gene expression of all the other tested genes (RT-PCR)” value in test [5] (absence of IPTG, sulindac 250 μM, 500 μM or 1 mM) is recorded as “dose-dependent increase”. The “NK4 gene expression (RT-PCR)” value in test [5] (absence of IPTG, sulindac 250 μM, 500 μM or 1 mM, 48 hrs) is “very little effect”. In addition, in test [5] (moderate dose of sulindac (250 μM)), the “ability of p21 to induce transcription for most of the tested genes” value is on record as “inhibits”. Also, in test [5] (only by 250 μM sulindac), the “effects of IPTG on the CTGF gene (RT-PCR)” value is recorded as “diminished”, the “effects of IPTG on the Mac2-binding protein (Mac2-BP) gene (RT-PCR)” value is reported as “diminished” and the “effects of IPTG on the p66Shc gene (RT-PCR)” value is listed as “diminished”. Also, the “NK4 RNA levels (RT-PCR)” value in test [5] (presence of 50 μM IPTG, sulindac 250 μM, 500 μM or 1 mM, 48 hrs) was “dose-dependent decrease”. Also, in test [5] (presence of IPTG, highest tested dose of sulindac (1 mM)), the “gene expression of the other tested genes (RT-PCR)” value was “did not decrease”. Also, in test [5] (setting [6]), the “IPTG-induced RNA levels of prosaposin (RT-PCR)” value was “None of the tested sulindac concentrations produced a significant decrease” and the “IPTG-induced RNA levels of superoxide dismutase 2 (SOD2) (RT-PCR)” value is “None of the tested sulindac concentrations produced a significant decrease”. The “t-TGase RNA (RT-PCR), compared with NK4” value in test [5] (with and without 50 μM IPTG, sulindac 250 μM, 500 μM or 1 mM, 48 hrs) is listed as “Very similar results”.

(Values after patent US20030064426A1, “Reagents and methods for identifying and modulating expression of genes regulated by CDK inhibitors” (priority 2001, published 2003).)
